Source: ChEMBL document CHEMBL1821710, “Synthesis and antiproliferative evaluation of 3,5-disubstituted 1,2,4-triazoles containing flurophenyl and trifluoromethanephenyl moieties” (2011)

Experiments:
Assay type in all cases: functional
NCI-H226 = experiment: Growth inhibition of human NCI-H226 cells after 72 hrs by MTT assay; details: NCI-H226, 72 h
[1] = Growth inhibition of human NPC-TW01 cells after 72 hrs by MTT assay; details: NPC-TW01, 72 h
Jurkat = experiment: Growth inhibition of human Jurkat cells after 72 hrs by MTT assay

| SMILES | GI50 (NCI-H226) [µM] | GI50 (Jurkat) [µM] | GI50 [1] [µM] |
| --- | --- | --- | --- |
| CCc1nc(C(=O)OC)nn1-c1ccc(F)cc1 | 71.3 | 11 | 15.8 |
| COC(=O)c1nc(C(C)C)n(-c2ccc(F)cc2)n1 | 6.17 | > 100 | > 100 |
| CCCCc1nc(C(=O)OC)nn1-c1ccc(F)cc1 | 6.4 | > 100 | > 100 |
| COC(=O)c1nc(C2CC2)n(-c2ccc(F)cc2)n1 | 16.3 | 9.42 | 95.9 |
| COC(=O)c1nc(C2CCCC2)n(-c2ccc(F)cc2)n1 | 70.5 | 9.55 | 10.4 |
| COC(=O)c1nc(C2CCCCC2)n(-c2ccc(F)cc2)n1 | 6.26 | > 100 | 30.5 |
| COC(=O)c1nc(-c2ccoc2)n(-c2ccc(F)cc2)n1 | 91.6 | 9.32 | 11.7 |
| COC(=O)c1nc(-c2ccsc2)n(-c2ccc(F)cc2)n1 | 6.94 | 54 | 10.7 |
| COC(=O)c1nc(-c2ccc[nH]2)n(-c2ccc(F)cc2)n1 | 72 | 9.01 | 9.58 |
| COC(=O)c1nc(-c2ccccc2)n(-c2ccc(F)cc2)n1 | 89.3 | 10 | 15.6 |
| COC(=O)c1nc(-c2ccc3ccccc3c2)n(-c2ccc(F)cc2)n1 | 79.3 | 18.5 | > 100 |
| COC(=O)c1nc(C2CCCCC2)n(-c2ccc(C(F)(F)F)cc2)n1 | 5.76 | > 100 | > 100 |
| CCOC(=O)c1nc(-c2ccc[nH]2)n(-c2ccc(C(F)(F)F)cc2)n1 | 5.61 | > 100 | 76.4 |
| CCOC(=O)c1nc(-c2ccc[nH]2)n(-c2ccc(F)cc2)n1 | 5.71 | > 100 | 64.3 |
| CN(Cc1cnc2nc(N)nc(N)c2n1)c1ccc(C(=O)N[C@@H](CCC(=O)O)C(=O)O)cc1 [METHOTREXATE] | 10.2 | 1.25 | 0.1 |

The next lines start with results.

| GI50 (NCI-H226) [µM] | GI50 (Jurkat) [µM] | SMILES | GI50 [1] [µM] |
| --- | --- | --- | --- |
| > 100 | > 100 | COC(=O)c1nc(C)n(-c2ccccc2)n1 | > 100 |
| 6.13 | > 100 | COC(=O)c1nc(C)n(-c2ccccc2C(F)(F)F)n1 | > 100 |
| 7.35 | > 100 | COC(=O)c1nc(C)n(-c2cccc(Br)c2)n1 | > 100 |
| 14.3 | 10.6 | COC(=O)c1nc(C)n(-c2cccc(C(F)(F)F)c2)n1 | > 100 |
| 16.6 | 9.1 | COC(=O)c1nc(C)n(-c2ccc(C(F)(F)F)cc2)n1 | > 100 |
| > 100 | > 100 | COC(=O)c1nc(C)n(-c2ccc(OC)cc2)n1 | 9.92 |
| 84 | 65.9 | COC(=O)c1nc(C)n(-c2ccc(Cl)cc2)n1 | 17.5 |
| 11.7 | 8.7 | COC(=O)c1nc(C)n(-c2ccc(F)cc2)n1 | 15.2 |
| 5.71 | > 100 | COC(=O)c1nc(C2CCCC2)n(-c2ccc(C(F)(F)F)cc2)n1 | 56.4 |
| 6.01 | 97.2 | COC(=O)c1nc(-c2ccoc2)n(-c2ccc(C(F)(F)F)cc2)n1 | > 100 |
| 5.74 | > 100 | COC(=O)c1nc(-c2ccsc2)n(-c2ccc(C(F)(F)F)cc2)n1 | 34.9 |
| 5.65 | > 100 | COC(=O)c1nc(-c2ccc[nH]2)n(-c2ccc(C(F)(F)F)cc2)n1 | > 100 |
